# Results from US20240207162A1, “CARGO MOLECULE TRANSDUCTION DOMAIN RMAD1, VARIANT THEREOF, RECOMBINANT CARGO MOLECULE, AND METHOD FOR TRANSDUCING CARGO MOLECULE USING SAME” (REMEDI CO., LTD., priority 2021, published 2024).
# Test system: RAW264.7 cells
# Test: Introduction of SOD1 fusion proteins into RAW264.7 cells
# Format: cell-based
# Conditions: 0.5 uM, 2 hours
# Protocol: SOD1, which is widely known as an antioxidant enzyme, was fused with a cell-penetrating peptide, and the cell-penetrating ability and activity maintenance were evaluated using RAW264.7 cells. The recombinant proteins SOD1, SOD1-TAT, and SOD1-RMAD1 were treated at the same concentration of 0.5 uM to RAW264.7 cells for 2 hours.
substance,measurement,value
"SOD1: antioxidant enzyme, recombinant control protein",level of cell penetration,did not penetrate cells
